Data reported in patent US5672715A, “Herbicidal substituted 3-aryl-pyrazoles” (Monsanto Company, priority 1995, dated 1997).

Tests used:
Format in all cases: in vivo
Bedstraw Catchweed [1] = assay: pre-emergence herbicide test; conditions: Galium aparine, pre-emergence, read-out: % plant inhibition; for inhibition at 200.072 g/ha: 0.1785 lb/A; for inhibition at 1000.92 g/ha: 0.893 lb/A; for inhibition at 5043.82 g/ha: 4.5 lb/A
Outline: (§1)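 Percent inhibition of emergence and growth was recorded roughly 14 days after seeding. Compound was incorporated into, or applied onto, a topsoil cover layer over seeds in pans kept in a greenhouse and watered from below.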

Blackgrass = assay: pre-emergence herbicide test; conditions: Alopecurus myosuroides, pre-emergence, read-out: % plant inhibition; for inhibition at 200.072 g/ha: 0.1785 lb/A; for inhibition at 1000.92 g/ha: 0.893 lb/A; for inhibition at 5043.82 g/ha: 4.5 lb/A
Outline: as §1

Common Chickweed [2] = assay: pre-emergence herbicide test; conditions: pre-emergence, read-out: % plant inhibition; for inhibition at 200.072 g/ha: 0.1785 lb/A; for inhibition at 1000.92 g/ha: 0.893 lb/A; for inhibition at 5043.82 g/ha: 4.5 lb/A
Outline: as §1

Wheat = assay: pre-emergence herbicide test; conditions: Triticum aestivum, pre-emergence, read-out: % plant inhibition; for inhibition at 200.072 g/ha: 0.1785 lb/A; for inhibition at 1000.92 g/ha: 0.893 lb/A; for inhibition at 5043.82 g/ha: 4.5 lb/A
Outline: as §1

Bedstraw Catchweed [3] = assay: post-emergence herbicide test; conditions: for inhibition at 200.072 g/ha: 0.1785 lb/A; for inhibition at 5043.82 g/ha: 4.5 lb/A
Outline: (§2)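 Plants were raised from seed in topsoil pans in the greenhouse and treated post-emergence at two to three weeks of age. Candidate chemical was applied in spray solution or suspension containing about 0.4% emulsifier at 1870 L/Ha. Activity recorded as percent inhibition.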

Cocklebur = assay: post-emergence herbicide test; conditions: Xanthium strumarium, post-emergence, read-out: % plant inhibition; for inhibition at 200.072 g/ha: 0.1785 lb/A; for inhibition at 1000.92 g/ha: 0.893 lb/A; for inhibition at 5043.82 g/ha: 4.5 lb/A
Outline: as §2

Common Chickweed [4] = assay: post-emergence herbicide test; conditions: for inhibition at 200.072 g/ha: 0.1785 lb/A; for inhibition at 5043.82 g/ha: 4.5 lb/A
Outline: as §2

Morning Glory = assay: post-emergence herbicide test; conditions: for inhibition at 200.072 g/ha: 0.1785 lb/A; for inhibition at 5043.82 g/ha: 4.5 lb/A
Outline: as §2

Yellow Nutsedge = assay: post-emergence herbicide test; conditions: Cyperus, read-out: % plant inhibition; for inhibition at 200.072 g/ha: 0.1785 lb/A; for inhibition at 1000.92 g/ha: 0.893 lb/A; for inhibition at 5043.82 g/ha: 4.5 lb/A
Outline: as §2

[5] = Galium aparine, post-emergence, read-out: % plant inhibition
[6] = Galium aparine, post-emergence, 0.893 lb/A, read-out: % plant inhibition
[7] = post-emergence, read-out: % plant inhibition
[8] = post-emergence, 0.893 lb/A, read-out: % plant inhibition
[9] = Ipomoea, post-emergence, read-out: % plant inhibition
[10] = Ipomoea, post-emergence, 0.893 lb/A, read-out: % plant inhibition

| Structure (SMILES) | inhibition at 200.072 g/ha (Bedstraw Catchweed [1]) [%] | inhibition at 1000.92 g/ha (Bedstraw Catchweed [1]) [%] | inhibition at 5043.82 g/ha (Bedstraw Catchweed [1]) [%] | inhibition at 200.072 g/ha (Blackgrass) [%] | inhibition at 1000.92 g/ha (Blackgrass) [%] | inhibition at 5043.82 g/ha (Blackgrass) [%] | inhibition at 200.072 g/ha (Common Chickweed [2]) [%] | inhibition at 1000.92 g/ha (Common Chickweed [2]) [%] | inhibition at 5043.82 g/ha (Common Chickweed [2]) [%] | inhibition at 200.072 g/ha (Wheat) [%] | inhibition at 1000.92 g/ha (Wheat) [%] | inhibition at 5043.82 g/ha (Wheat) [%] | inhibition at 1000.92 g/ha (Bedstraw Catchweed [3]; [6]) [%] | inhibition at 5043.82 g/ha (Bedstraw Catchweed [3]; [5]) [%] | inhibition at 200.072 g/ha (Cocklebur) [%] | inhibition at 5043.82 g/ha (Cocklebur) [%] | inhibition at 200.072 g/ha (Common Chickweed [4]; [7]) [%] | inhibition at 5043.82 g/ha (Common Chickweed [4]; [7]) [%] | inhibition at 200.072 g/ha (Morning Glory; [9]) [%] | inhibition at 1000.92 g/ha (Morning Glory; [10]) [%] | other results |
| --- | --- | --- | --- | --- | --- | --- | --- | --- | --- | --- | --- | --- | --- | --- | --- | --- | --- | --- | --- | --- | --- |
| Cc1c(-c2cc(F)ccc2F)nn(C)c1C(F)(F)F [Compound 1, 3-(2,5-Difluorophenyl)-1,4-dimethyl-5-(trifluoromethyl)-1H-pyrazole] | 0 | 0 | 0 | 0 | 0 | 15 | 0 | 0 | 0 | 0 | 0 | 10 | 0 | 30 | 0 | 0 | 0 | 40 | 0 | 0 | inhibition at 200.072 g/ha (Bedstraw Catchweed [3]; [5]): 0%; inhibition at 1000.92 g/ha (Cocklebur): 0%; inhibition at 1000.92 g/ha (Common Chickweed [4]; [8]): 0%; inhibition at 5043.82 g/ha (Morning Glory; [9]): 15%; inhibition at 200.072 g/ha (Yellow Nutsedge): 0%; inhibition at 1000.92 g/ha (Yellow Nutsedge): 0%; inhibition at 5043.82 g/ha (Yellow Nutsedge): 30% |
| Cn1nc(-c2cc(F)ccc2F)c(C=O)c1C(F)(F)F [Compound 34] | 0 | 0 | 10 | 0 | 0 | 25 | 0 | 0 | 0 | 0 | 0 | 5 | 0 | 80 | 0 | 25 | 0 | 0 | 0 | 0 | inhibition at 200.072 g/ha (Bedstraw Catchweed [3]; [5]): 0%; inhibition at 1000.92 g/ha (Cocklebur): 0%; inhibition at 1000.92 g/ha (Common Chickweed [4]; [8]): 0%; inhibition at 5043.82 g/ha (Morning Glory; [9]): 55%; inhibition at 200.072 g/ha (Yellow Nutsedge): 0%; inhibition at 1000.92 g/ha (Yellow Nutsedge): 0%; inhibition at 5043.82 g/ha (Yellow Nutsedge): 0% |
| Cc1c(-c2cc(F)c([N+](=O)[O-])cc2F)nn(C)c1C(F)(F)F [Compound 35] | 30 | 100 | 100 | 0 | 35 | 80 | 0 | 35 | 95 | 0 | 0 | 10 | 75 | 85 | 0 | 90 | 0 | 35 | 75 | 85 | % plant inhibition (Bedstraw Catchweed [3]; 0.893 lb/A): 95%; inhibition at 7.95803 g/ha (Bedstraw Catchweed [3]; Galium aparine, post-emergence, 0.0071 lb/A, read-out: % plant inhibition): 0%; inhibition at 40.0143 g/ha (Bedstraw Catchweed [3]; Galium aparine, post-emergence, 0.0357 lb/A, read-out: % plant inhibition): 25%; inhibition at 7.95803 g/ha (Cocklebur; 0.0071 lb/A): 0%; inhibition at 40.0143 g/ha (Cocklebur; 0.0357 lb/A): 0%; inhibition (Cocklebur; 0.1725 lb/A): 0%; % plant inhibition (Common Chickweed [4]; 0.893 lb/A): 10%; inhibition at 7.95803 g/ha (Common Chickweed [4]; post-emergence, 0.0071 lb/A, read-out: % plant inhibition): 0%; inhibition at 40.0143 g/ha (Common Chickweed [4]; post-emergence, 0.0357 lb/A, read-out: % plant inhibition): 0%; % plant inhibition (Morning Glory; 0.893 lb/A): 100%; inhibition at 7.95803 g/ha (Morning Glory; Ipomoea, post-emergence, 0.0071 lb/A, read-out: % plant inhibition): 0%; inhibition at 40.0143 g/ha (Morning Glory; Ipomoea, post-emergence, 0.0357 lb/A, read-out: % plant inhibition): 0%; inhibition (Morning Glory; Ipomoea, post-emergence, 0.1725 lb/A, read-out: % plant inhibition): 65%; inhibition at 5043.82 g/ha (Morning Glory; [9]): 95%; inhibition at 7.95803 g/ha (Yellow Nutsedge; 0.0071 lb/A): 0%; inhibition at 40.0143 g/ha (Yellow Nutsedge; 0.0357 lb/A): 0%; inhibition (Yellow Nutsedge; 0.1725 lb/A): 0%; inhibition at 200.072 g/ha (Yellow Nutsedge): 0%; inhibition at 1000.92 g/ha (Yellow Nutsedge): 0%; inhibition at 5043.82 g/ha (Yellow Nutsedge): 0% |
